According to patent publication US6855730B2, “3-methylidenyl-2-indolinone modulators of protein kinase” (Sugen, Inc., priority 1998, dated 2005):
pIC50: −log10 of the molar value.

How the values were obtained:
PDGFR-β = biological target: T1, PDGFR-β (Homo sapiens, UniProt P09619); test: Biochemical PDGFR assay (ELISA, PDGFR-β expressing NIH 3T3 cell lysate); settings: read-out: bio PDGF IC50
T1 construct: host or cells: NIH 3T3
Text: This assay measures the in vitro kinase activity of PDGFR using ELISA.
Unless otherwise noted, the preparation of working solution-of the following reagents is the same as that for the Biochemical EGFR assay, above. • 1. […] 28D4C10 monoclonal anti-PDGFR antibody (Biochemistry Lab, SUGEN, Inc.). • 3. PBS (Dulbecco's Phosphate-Buffered Saline, Gibco Catalog No. 450-1300EB) • 4. TBST Buffer. • 5. Blocking Buffer. • 6. PDGFR-β expressing NIH 3T3 cell lysate (Screening Lab, SUGEN, Inc.). • 7. TBS Buffer. • 8. TBS+10% DMSO. • 9. […] MnCl2. • 11. Kinase buffer phosphorylation mix.
• 12. NUNC 96-well V bottom polypropylene plates (Applied Scientific Cat. No. AS-72092). • 13. Ethylenediaminetetraacetic acid (EDTA). • 14. Rabbit polyclonal anti-phosphotyrosine serum (Biochemistry Lab, SUGEN, Inc.). • 15. Goat anti-rabbit IgG peroxidase conjugate (Biosource Cat. No. ALI0404). • 16. 2,2′-azino-bis(3-ethylbenzthiazoline-6-sulfonic acid) (ABTS, Sigma Cat. No. A-1888). • 17. Hydrogen peroxide 30% solution (Fisher Cat. No. H325). • 18. ABTS/H2O2. • 19. 0.2 M HCl.
Procedure • 1. Coat Corning 96 well ELISA plates with 0.5 μg 28D4C10 in 100 μl PBS per well, store overnight at 4° C. • 2. Remove unbound 28D4C10 from wells by inverting plate to remove liquid. Wash 1× with dH2O. Pat the plate on a paper towel to remove excess liquid. • 3. Add 150 μl of Blocking Buffer to each well. Incubate for 30 min. at room temperature with shaking. • 4. Wash plate 3× with deionized water, then once with TBST. Pat plate on a paper towel to remove excess liquid and bubbles. • 5. Dilute lysate in HNTG (10 μg lysate/100 μl HNTG) • 6. Add 100 μl of diluted lysate to each well. Shake at room temperature for 60 min. • 7. Wash plates as described in 4, above. • 8. Add 80 μl working kinase buffer mix to ELISA plate containing captured PDGFR. • 9. Dilute test compound 1:10 in TBS in 96-well polypropylene plates (i.e., 10 μl compound+90 μl TBS). • 10. Add 10 μl diluted test compound to ELISA plate. […] Incubate for 30 minutes while shaking at room temperature. • 12. Add 10 μl ATP directly to all wells except negative control well (final well volume should be approximately 100 μl with 20 μM ATP in each well.) Incubate 30 minutes while shaking. • 13. After 30 minutes, stop reaction by adding 10 μl of 200 mM EDTA (pH 8.0) to each well. • 14. Wash 4× with deionized water, twice with TBST. • 15. Add 100 μl anti-phosphotyrosine (1:3000 dilution in TBST) per well. Incubate 30-45 min. at room temperature, with shaking. • 16. Wash as described in 4, above. • 17. Add 100 μl Biosource Goat anti-rabbit IgG peroxidase conjugate (1:2000 dilution in TBST) to each well. Incubate 30 min. at room temperature, with shaking. • 18. Wash as described in 4, above. • 19. Add 100 μl of ABTS/H2O2 solution to each well. • 20. Incubate 10 to 30 minutes with shaking. Remove any bubbles. • 21. If necessary stop reaction with the addition of 100 μl 0.2 M HCl per well. • 22. Read assay on Dynatech MR7000 ELISA reader: test filter: 410 nM, reference filter: 630 nM.

[1] = biological target: Myc-GyrB-FGFR fusion protein (Homo sapiens, UniProt P11362); test: Biochemical FGFR assay (ELISA); settings: read-out: bio fgfR1 IC50
Myc-GyrB-FGFR fusion protein, sequence (P11362 478-767 limits assumed): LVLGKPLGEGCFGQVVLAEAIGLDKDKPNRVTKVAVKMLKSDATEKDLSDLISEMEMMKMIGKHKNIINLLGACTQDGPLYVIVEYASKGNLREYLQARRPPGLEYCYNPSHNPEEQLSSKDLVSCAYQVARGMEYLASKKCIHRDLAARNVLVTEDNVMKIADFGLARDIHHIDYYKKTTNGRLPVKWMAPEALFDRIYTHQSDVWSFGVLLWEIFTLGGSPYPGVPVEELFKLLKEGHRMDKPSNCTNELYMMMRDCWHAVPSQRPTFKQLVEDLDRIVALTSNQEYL

flkGST = biological target: T2, flkGST (Homo sapiens, UniProt P35968); test: bio flkGST assay; type: biochemical
T2 construct: GST
T2 sequence (P35968 786-1356 limits assumed): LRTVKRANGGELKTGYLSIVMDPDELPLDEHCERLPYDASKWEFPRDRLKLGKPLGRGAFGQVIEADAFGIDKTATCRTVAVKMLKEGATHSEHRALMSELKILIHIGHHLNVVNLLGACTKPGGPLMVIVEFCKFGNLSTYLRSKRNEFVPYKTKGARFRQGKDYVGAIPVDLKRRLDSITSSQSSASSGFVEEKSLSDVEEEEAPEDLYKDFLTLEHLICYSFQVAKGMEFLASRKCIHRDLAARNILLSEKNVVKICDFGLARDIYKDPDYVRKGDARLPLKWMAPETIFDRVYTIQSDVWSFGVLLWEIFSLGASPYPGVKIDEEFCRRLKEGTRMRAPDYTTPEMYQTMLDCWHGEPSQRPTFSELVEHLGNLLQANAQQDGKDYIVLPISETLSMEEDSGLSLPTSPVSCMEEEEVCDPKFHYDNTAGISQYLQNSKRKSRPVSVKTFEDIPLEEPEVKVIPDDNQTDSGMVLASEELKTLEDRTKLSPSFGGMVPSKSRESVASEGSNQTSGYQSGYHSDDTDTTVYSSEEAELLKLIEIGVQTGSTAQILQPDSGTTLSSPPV

[2] = biological target: T3, chimeric receptor containing the EGFR extracellular domain and intracellular HER2 kinase domain (Homo sapiens, UniProt P04626); test: EGF Receptor-HER2 chimeric receptor assay in whole cells (ELISA); type: cell-based; settings: read-out: HER-2 kinase IC50
T3 construct: fused on or other part: EGFR ectodomain + HER2 intracellular part, ATP-site indolinones: HER2's kinase
T3 sequence (P04626 720-1255 limits assumed, change not shown): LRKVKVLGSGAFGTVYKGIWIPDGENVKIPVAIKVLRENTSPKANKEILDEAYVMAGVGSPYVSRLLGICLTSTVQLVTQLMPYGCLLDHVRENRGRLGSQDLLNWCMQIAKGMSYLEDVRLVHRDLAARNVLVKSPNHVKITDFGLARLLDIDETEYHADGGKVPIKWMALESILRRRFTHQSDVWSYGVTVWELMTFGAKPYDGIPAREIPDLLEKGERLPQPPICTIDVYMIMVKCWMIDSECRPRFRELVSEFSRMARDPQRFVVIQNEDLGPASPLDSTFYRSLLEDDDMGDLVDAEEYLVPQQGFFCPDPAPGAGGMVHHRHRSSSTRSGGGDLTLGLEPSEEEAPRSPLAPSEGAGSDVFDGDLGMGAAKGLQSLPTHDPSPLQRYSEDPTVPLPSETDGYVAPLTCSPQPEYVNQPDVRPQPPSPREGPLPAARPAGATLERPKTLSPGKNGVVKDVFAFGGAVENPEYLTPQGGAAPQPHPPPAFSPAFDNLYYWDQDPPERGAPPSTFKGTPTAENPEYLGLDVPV
Experimental: EGF Receptor-HER2 Chimeric Receptor Assay In Whole Cells.
HER2 kinase activity in whole EGFR-NIH3T3 cells are measured as described below:
• a. […] 05-101 (UBI) (a monoclonal antibody recognizing an EGFR extracellular domain). • c. Anti-phosphotyrosine antibody (anti-Ptyr) (polyclonal) (see, Fendley, et al., supra). • d. Detection antibody: Goat anti-rabbit IgG horseradish peroxidase conjugate, TAGO, Inc., Burlingame, Calif. • e. TBST buffer:
• h. Stock reagents of:
Pre-coat ELISA Plate • 1. […] Coated plates are good for up to 10 days when stored at 4° C. • 2. On day of use, remove coating buffer and replace with 100 μl blocking buffer (5% Carnation Instant Non-Fat Dry Milk in PBS). Incubate the plate, shaking, at room temperature (about 23° C. to 25° C.) for 30 minutes. Just prior to use, remove blocking buffer and wash plate 4 times with TBST buffer.
Seeding Cells • 1. An NIH3T3 cell line overexpressing a chimeric receptor containing the EGFR extracellular domain and intracellular HER2 kinase domain can be used for this assay. • 2. Choose dishes having 80-90% confluence for the experiment. Trypsinize cells and stop reaction by adding 10% fetal bovine serum. Suspend cells in DMEM medium (10% CS DMEM medium) and centrifuge once at 1500 rpm, at room temperature for 5 minutes. • 3. Resuspend cells in seeding medium (DMEM, 0.5% bovine serum), and count the cells using trypan blue. Viability above 90% is acceptable. Seed cells in DMEM medium (0.5% bovine serum) at a density of 10,000 cells per well, 100 μl per well, in a 96 well microtiter plate. Incubate seeded cells in 5% CO2. at 37° C. for about 40 hours.
Assay Procedures • 1. Check seeded cells for contamination using an inverted microscope. Dilute drug stock (10 mg/ml in DMSO) 1:10 in DMEM medium, then transfer 5 μl to a […] well for a final drug dilution of 1:200 and a final DMSO concentration of 1%. Control wells receive DMSO alone. Incubate in 5% CO2 at 37° C. for two hours. • 2. Prepare EGF ligand: dilute stock EGF in DMEM so that upon transfer of 10 μl dilute EGF (1:12 dilution), 100 nM final concentration is attained. • 3. Prepare fresh HNTG* sufficient for 100 μl per well, and place on ice.
• 4. After 120 minutes incubation with drug, add prepared […] ligand to cells, 10 μl per well, to a final concentration of 100 nM. Control wells receive DMEM alone. Incubate with shaking, at room temperature, for 5 minutes. • 5. Remove drug, EGF, and DMEM. Wash cells twice with PBS. Transfer HNTG* to cells, 100 μl per well. Place on ice for 5 minutes. Meanwhile, remove blocking buffer from other ELISA plate and wash with TBST as described above. • 6. With a pipette tip securely fitted to a micropipettor, scrape cells from plate and homogenize cell material by repeatedly aspirating and dispensing the HNTG* lysis buffer. Transfer lysate to a coated, blocked, and washed ELISA plate. Incubate shaking at room temperature for one hour. • 7. Remove lysate and wash 4 times with TBST. Transfer freshly diluted anti-Ptyr antibody to ELISA plate at 100 μl per well. Incubate shaking at room temperature for 30 minutes in the presence of the anti-Ptyr antiserum (1:3000 dilution in TBST). • 8. Remove the anti-Ptyr antibody and wash 4 times with TBST. Transfer the freshly diluted TAGO anti-rabbit IgG antibody to the ELISA plate at 100 μl per well. Incubate shaking at room temperature for 30 minutes (anti-rabbit IgG antibody: 1:3000 dilution in TBST). • 9. Remove TAGO detection antibody and wash 4 times with TBST. Transfer freshly prepared ABTS/H2O2 solution to ELISA plate, 100 μl per well. Incubate shaking at room temperature for 20 minutes. (ABTS/H2O2 solution: 1.0 μl 30% H2O2 in 10 ml ABTS stock). • 10. Stop reaction by adding 50 μl 5N H2SO4 (optional), and determine O.D. at 410 nm. • 11. The maximal phosphotyrosine signal is determined by subtracting the value of the negative controls from the positive controls. […]

T1 sequence (P09619 33-1106): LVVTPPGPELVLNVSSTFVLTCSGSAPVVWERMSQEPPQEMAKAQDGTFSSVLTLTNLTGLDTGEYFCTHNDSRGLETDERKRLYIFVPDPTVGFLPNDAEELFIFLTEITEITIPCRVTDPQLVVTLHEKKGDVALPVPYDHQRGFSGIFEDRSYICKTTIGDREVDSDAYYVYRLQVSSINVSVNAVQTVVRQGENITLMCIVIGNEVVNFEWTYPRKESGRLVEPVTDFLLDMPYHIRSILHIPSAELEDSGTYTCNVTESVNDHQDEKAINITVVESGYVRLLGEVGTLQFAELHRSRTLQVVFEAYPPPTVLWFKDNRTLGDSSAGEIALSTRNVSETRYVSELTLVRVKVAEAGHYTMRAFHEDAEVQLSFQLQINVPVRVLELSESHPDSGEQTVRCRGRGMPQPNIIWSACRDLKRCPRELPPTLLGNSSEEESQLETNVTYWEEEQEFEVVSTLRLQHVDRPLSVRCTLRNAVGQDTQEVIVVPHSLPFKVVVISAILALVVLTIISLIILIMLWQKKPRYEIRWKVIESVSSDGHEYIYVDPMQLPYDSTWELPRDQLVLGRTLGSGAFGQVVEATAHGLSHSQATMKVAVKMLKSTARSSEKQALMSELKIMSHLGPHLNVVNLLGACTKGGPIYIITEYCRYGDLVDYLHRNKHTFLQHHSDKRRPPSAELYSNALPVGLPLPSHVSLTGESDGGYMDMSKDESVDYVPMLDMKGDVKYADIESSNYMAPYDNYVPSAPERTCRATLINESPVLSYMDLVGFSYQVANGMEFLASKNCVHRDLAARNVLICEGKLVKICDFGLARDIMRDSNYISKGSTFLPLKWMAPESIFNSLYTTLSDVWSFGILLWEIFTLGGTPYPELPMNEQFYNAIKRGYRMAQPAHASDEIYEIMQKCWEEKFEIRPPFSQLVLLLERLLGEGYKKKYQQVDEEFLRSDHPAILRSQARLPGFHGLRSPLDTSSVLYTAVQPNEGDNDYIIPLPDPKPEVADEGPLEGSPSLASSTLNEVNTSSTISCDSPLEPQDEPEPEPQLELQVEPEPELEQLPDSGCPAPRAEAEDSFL

| Structure (SMILES) | pIC50 (PDGFR-β) | pIC50 [1] | pIC50 (flkGST) | pIC50 [2] |
| --- | --- | --- | --- | --- |
| CCOC(=O)c1[nH]c(/C=C2\C(=O)Nc3ccccc32)c(CCC(=O)O)c1C [Example 117, 4-(2-Carboxyethyl)-3-methyl-5-(2-oxo-1,2-dihydroindol-3-ylidenemethyl)-1H-pyrrole-2-carboxylic acid ethyl ester] | < 4.00 | < 4.70 | 4.87 |  |
| Cc1ccc2c(c1)/C(=C/c1[nH]c3ccccc3c1C)C(=O)N2 [Example 152, 5-Methyl-3-(3-methyl-1H-indol-2-ylmethylene)-1,3-dihydro-indol-2-one] |  | < 4.70 |  | < 4.00 |
| Cc1c(/C=C2\C(=O)Nc3ccccc32)[nH]c2ccccc12 [Example 167, 3-(3-Methyl-1H-indol-2-ylmethylene)-1,3-dihydro-indol-2-one] | < 4.00 | < 4.70 |  |  |
| CC(=O)c1ccc2c(c1)C(=Cc1[nH]c3ccccc3c1C)C(=O)N2 [Example 157, 5-Acetyl-3-(3-methyl-1H-indol-2-ylmethylene)-1,3-dihydroindol-2-one] | < 4.00 | < 4.70 |  | < 4.00 |
| CCOC(=O)c1c(C)[nH]c(/C=C2\C(=O)Nc3ccc(OC)cc32)c1CCCN1CCOCC1 [Example 121, 5-(5-Methoxy-2-oxo-1,2-dihydroindol-3-ylidenemethyl)-2-methyl-4-(3-morpholin-4-ylpropyl)-1H-pyrrole-3-carboxylic acid ethyl ester] | 4.57 |  | 6.00 |  |
| O=C1Nc2cc(Cl)ccc2/C1=C/c1cc2ccccc2[nH]1 [Example 162, 6-Chloro-3-(1H-indol-2-ylmethylene)-1,3-dihydro-indol-2-one] | 5.10 | < 4.70 |  |  |
| NS(=O)(=O)c1ccc2c(c1)/C(=C/c1cc3ccccc3[nH]1)C(=O)N2 [Example 159, 3-(1H-Indol-2-ylmethylene)-2-oxo-2,3-dihydro-1H-indole-5-sulfonic acid amide] | 4.13 | < 4.70 | 5.54 |  |
| CCOC(=O)c1c(C)[nH]c(/C=C2\C(=O)Nc3ccc(OC)cc32)c1CCCN(C)C [Example 120, 4-(3-Dimethylaminopropyl)-5-(5-methoxy-2-oxo-1,2-dihydroindol-3-ylidenemethyl)-2-methyl-1H-pyrrole-3-carboxylic acid ethyl ester] | 5.00 |  | 5.20 |  |
| O=C1Nc2ccccc2/C1=C/c1cc2ccccc2[nH]1 [Example 163, 3-(1H-Indol-2-ylmethylene)-1,3-dihydro-indol-2-one] | < 4.00 | < 4.70 |  |  |
| Cc1c(/C=C2\C(=O)Nc3ccc(Cl)cc32)[nH]c2ccccc12 [Example 168, 5-Chloro-3-(3-methyl-1H-indol-2-ylmethylene)-1,3-dihydro-indol-2-one] | < 4.00 | < 4.70 |  |  |
| O=C1Nc2ccc(Cl)cc2/C1=C/c1cc2ccccc2[nH]1 [Example 164, 5-Chloro-3-(1H-indol-2-ylmethylene)-1,3-dihydro-indol-2-one] | < 4.00 | < 4.70 |  | < 4.00 |
| CCOC(=O)c1c(C)[nH]c(/C=C2\C(=O)Nc3ccc(OC)cc32)c1CCCN1CCN(C)CC1 [Example 122, 5-(5-Methoxy-2-oxo-1,2-dihydroindol-3-ylidenemethyl)-2-methyl-4-[3-(4-methylpiperazin-1-yl)-propyl]-1h-pyrrole-3-carboxylic acid ethyl ester] | 5.67 |  | 6.29 |  |
| CCOC(=O)c1c(C)[nH]c(/C=C2\C(=O)Nc3ccc(S(N)(=O)=O)cc32)c1CCCN(C)C [Example 133, 4-(3-Dimethylaminopropyl)-2-methyl-5-(2-oxo-5-sulfamoyl-1,2-dihydroindol-3-ylidenemethyl)-1H-pyrrole-3-carboxylic acid ethyl ester] | 5.57 |  | 5.09 |  |
| Cc1c(/C=C2\C(=O)Nc3ccc(S(N)(=O)=O)cc32)[nH]c2ccccc12 [Example 153, 3-(3-Methyl-1H-indol-2-ylmethylene)-2-oxo-2,3-dihydro-1H-indole-5-sulfonic acid amide] | < 4.00 | < 4.70 |  | < 4.00 |
